Measured values reported in the OligoGym collection.
Several values for one entry are separate records, joined by “and”; a condition that tells them apart may be missing. Identical values can stand only once. After the bases stand the sugars from the 5' end (letter, count) and the backbone: PS all phosphorothioate, else s phosphorothioate and o phosphodiester by linkage. Methylation of C is not given here. e = 2'-O-(2-methoxyethyl) (MOE); k = constrained ethyl (cEt); d = 2'-deoxy (DNA)

Target: IRF4
Conditions: ASO

Sequence	target mRNA inhibition (SK-MEL-28, 4 µM) [%]	target mRNA inhibition (MM.1R, 1 µM)	also measured
GTCCTGCTTGCCCGCG (sugars k4 d8 k4, PS)	14	–	–
AGGCACGGCTTCAGTC (sugars k3 d10 k3, PS)	49	–	–
TAGATTGTAGGACAGA (sugars k3 d10 k3, PS)	28	–	–
GGAAGCACTGGCATTG (sugars k3 d10 k3, PS)	49	–	–
CTTGATAAAGGCTGAA (sugars k3 d9 k3 e1, PS)	–	36%	–
AAGTTCATGTAAAGTC (sugars kkdddddddddkekek, PS)	–	34% and 27%	–
CAGTGTGATTAATTCT (sugars k3 d10 k3, PS)	–	17%	–
CCCGAGGCCGGAGACC (sugars k3 d10 k3, PS)	6	–	–
ATGGCGGATAGATCTG (sugars k3 d10 k3, PS)	57	–	–
AATGGAGATACTTGTA (sugars k3 d10 k3, PS)	–	26%	–
GAAATACGACAACTTT (sugars k3 d10 k3, PS)	22	–	–
GGCACAAGCATAAAAG (sugars k3 d10 k3, PS)	1	–	–
GTCAAACCCTACTGGG (sugars k3 d10 k3, PS)	31	–	–
AGTGTCTAAAGTCCCA (sugars kkdddddddddkdkdk, PS)	–	14% and -5%	–
GACAGCTAAAGAACAC (sugars k3 d10 k3, PS)	19	–	–
CTGATCGCTGGACAGC (sugars k3 d10 k3, PS)	20	–	–
TTTATGTTAGCCAATT (sugars kdddddddddkekeke, PS)	–	5% and 14%	–
AGCAACACGGGAATTT (sugars k3 d10 k3, PS)	57	–	–
ACGAGAACGCACGGAC (sugars k3 d10 k3, PS)	40	–	–
AAGGGTTACGCTTATT (sugars k3 d10 k3, PS)	52	–	–
CTGTAGTATGAGAAAC (sugars k3 d10 k3, PS)	45	–	–
GTGACTTAATTCTGGG (sugars k3 d10 k3, PS)	51	–	–
CACTGTTAAAGCAGCA (sugars k3 d10 k3, PS)	81	–	–
TTATTTGTGGCTCAAC (sugars k3 d10 k3, PS)	18	–	–
CCCCAAAGAGAGTGGG (sugars k3 d10 k3, PS)	-11	–	–

Sequence	target mRNA inhibition (SK-MEL-28, 4 µM) [%]	target mRNA inhibition (MM.1R, 1 µM)	also measured
CTAGATTCTCCCTGCA (sugars k3 d10 k3, PS)	34	–	–
AGATAAGAAGCACTGG (sugars k3 d10 k3, PS)	25	–	–
GGAAGTTTACACTGGA (sugars kddddddddddkekek, PS)	–	33%	–
CACTATTCGAGAGAAA (sugars k3 d10 k3, PS)	–	30%	–
ATACTGGTTGGTTGGC (sugars k3 d10 k3, PS)	–	69% and 75%	target mRNA inhibition (KMS11, 0.2 µM): 74% and 76%; target mRNA inhibition (MM.1R, 0.0625 µM): 51%; target mRNA inhibition (MM.1R, 0.25 µM): 61%; target mRNA inhibition (MM.1R, 4 µM): 86%
GAAGCTTAGTTATCTG (sugars k3 d10 k3, PS)	–	45% and 39%	–
GGCCGCCGTGAGCTTG (sugars k3 d10 k3, PS)	3	–	–
GCAGTGATGTCAGGTT (sugars k2 d9 e3 k2, PS)	–	81%	target mRNA inhibition (MM.1R, 0.074 µM): 20%; target mRNA inhibition (MM.1R, 0.222 µM): 48%; target mRNA inhibition (MM.1R, 0.666 µM): 73%; target mRNA inhibition (MM.1R, 2 µM): 91%
GCGCAAAACCCCTCAA (sugars k3 d10 k3, PS)	22	–	–
TCTTCTGGATTGCTGA (sugars k3 d10 k3, PS)	–	20%	–
CCTCAGTTTGTGAAGC (sugars kdddddddddkekeke, PS)	–	11%	–
GAAACCGCTGGCAGGT (sugars k3 d10 k3, PS)	50	–	–
AGCCGCCACATCAGCA (sugars k3 d10 k3, PS)	21	–	–
TGCGGAGGTTCCTTGA (sugars k3 d10 k3, PS)	–	12%	–
GGAGATCCGGCAGCCC (sugars k3 d10 k3, PS)	23	–	–
CTATTAAACAGCACTC (sugars k3 d10 k3, PS)	18	–	–
GAGATATTAATTACTG (sugars k3 d10 k3, PS)	63	–	–
CAATAGTCTAGCTGGG (sugars k3 d10 k3, PS)	63	–	–
CCTAGGACTAAGGACA (sugars k3 d10 k3, PS)	–	-3%	–
AGTGTCTAAAGTCCCA (sugars kkddddddddddkeke, PS)	–	32% and 39%	–
ACGAAAACAGCCGCCG (sugars k3 d10 k3, PS)	14	–	–
CAGGTTTCATTTCATT (sugars k3 d10 k3, PS)	60	–	target mRNA inhibition (MM.1R, 0.074 µM): -1%; target mRNA inhibition (MM.1R, 0.222 µM): 13%; target mRNA inhibition (MM.1R, 0.666 µM): 10%; target mRNA inhibition (MM.1R, 2 µM): 39%; target mRNA inhibition (SK-MEL-28, 0.185 µM): 15%; target mRNA inhibition (SK-MEL-28, 5 µM): 71%; target mRNA inhibition (SK-MEL-28, 15 µM): 91%
GTGACTTGCATCCATG (sugars k3 d10 k3, PS)	–	62%	–
CACTGCCGTGATCTGA (sugars k3 d10 k3, PS)	–	9%	–
CCAGAGGACCACGCCC (sugars k3 d10 k3, PS)	28	–	–

Sequence	target mRNA inhibition (SK-MEL-28, 4 µM) [%]	target mRNA inhibition (MM.1R, 1 µM)	also measured
GGCACTACTTCCAAAA (sugars k3 d10 k3, PS)	31	–	–
CACGAAGGGCAGTGCC (sugars k3 d10 k3, PS)	17	–	–
CTTCATCAGACTAAGT (sugars k3 d10 k3, PS)	31	–	–
CATAAAGGACCCCGCC (sugars k3 d10 k3, PS)	–	-5%	–
GCAGAAGCTGGTTGGC (sugars k3 d10 k3, PS)	58	–	–
CTTGCCGCTGTCGATC (sugars k3 d10 k3, PS)	25	–	–
CAGATTTACACCGTTG (sugars k3 d10 k3, PS)	–	15%	–
GCCAAGTTGAAGACAC (sugars k3 d10 k3, PS)	57	–	–
GCTGATAATTAATCTG (sugars k3 d10 k3, PS)	–	-9%	–
GTAACAGGCTATCAGG (sugars k3 d10 k3, PS)	45	–	–
GGATTGATGTGATAGC (sugars k3 d10 k3, PS)	–	59% and 60%	target mRNA inhibition (MM.1R, 0.0625 µM): 7% and 24%; target mRNA inhibition (MM.1R, 0.25 µM): 24% and 20%; target mRNA inhibition (MM.1R, 4 µM): 88%
GAGCTGCTTGGCTCCT (sugars k3 d10 k3, PS)	19	–	–
CCGAACTCTCCGCCTC (sugars k3 d10 k3, PS)	36	–	–
GTGAAACTGAGAGTGC (sugars k3 d10 k3, PS)	-20	–	–
AGTGAGATGCGGAGGT (sugars k3 d10 k3, PS)	–	65%	–
TCTGGCTAGCAGAGGT (sugars k3 d10 k3, PS)	–	26%	–
GCCTAGGACTAAGGAC (sugars k3 d10 k3, PS)	33	–	–
AACGAGCCAGTGCACA (sugars k3 d10 k3, PS)	–	-1%	–
GATCATCAACTTCTTT (sugars k3 d10 k3, PS)	43	–	–
ATCTGTATCATGCATA (sugars k3 d10 k3, PS)	–	24%	–
AGCCGAAGCATTTTAT (sugars k3 d10 k3, PS)	44	–	–
TCTCTCCAGTTTGTTG (sugars k3 d10 k3, PS)	14	–	–
TAAGGCACTACTTCCA (sugars k3 d10 k3, PS)	–	10%	–
TCTCAGCAAAACGCAG (sugars k3 d10 k3, PS)	27	–	–
